In ChEMBL document CHEMBL4834472 (J Med Chem, 2021):

Tests used:
[1] = molecular target: T1, Receptor-type tyrosine-protein kinase FLT3 (Homo sapiens, UniProt P36888); experiment: Inhibition of wild type FLT3 (unknown origin) using AGLT peptide substrate in presence of [32P]gammaATP by image analyser
T1 sequence (P36888 whole entry): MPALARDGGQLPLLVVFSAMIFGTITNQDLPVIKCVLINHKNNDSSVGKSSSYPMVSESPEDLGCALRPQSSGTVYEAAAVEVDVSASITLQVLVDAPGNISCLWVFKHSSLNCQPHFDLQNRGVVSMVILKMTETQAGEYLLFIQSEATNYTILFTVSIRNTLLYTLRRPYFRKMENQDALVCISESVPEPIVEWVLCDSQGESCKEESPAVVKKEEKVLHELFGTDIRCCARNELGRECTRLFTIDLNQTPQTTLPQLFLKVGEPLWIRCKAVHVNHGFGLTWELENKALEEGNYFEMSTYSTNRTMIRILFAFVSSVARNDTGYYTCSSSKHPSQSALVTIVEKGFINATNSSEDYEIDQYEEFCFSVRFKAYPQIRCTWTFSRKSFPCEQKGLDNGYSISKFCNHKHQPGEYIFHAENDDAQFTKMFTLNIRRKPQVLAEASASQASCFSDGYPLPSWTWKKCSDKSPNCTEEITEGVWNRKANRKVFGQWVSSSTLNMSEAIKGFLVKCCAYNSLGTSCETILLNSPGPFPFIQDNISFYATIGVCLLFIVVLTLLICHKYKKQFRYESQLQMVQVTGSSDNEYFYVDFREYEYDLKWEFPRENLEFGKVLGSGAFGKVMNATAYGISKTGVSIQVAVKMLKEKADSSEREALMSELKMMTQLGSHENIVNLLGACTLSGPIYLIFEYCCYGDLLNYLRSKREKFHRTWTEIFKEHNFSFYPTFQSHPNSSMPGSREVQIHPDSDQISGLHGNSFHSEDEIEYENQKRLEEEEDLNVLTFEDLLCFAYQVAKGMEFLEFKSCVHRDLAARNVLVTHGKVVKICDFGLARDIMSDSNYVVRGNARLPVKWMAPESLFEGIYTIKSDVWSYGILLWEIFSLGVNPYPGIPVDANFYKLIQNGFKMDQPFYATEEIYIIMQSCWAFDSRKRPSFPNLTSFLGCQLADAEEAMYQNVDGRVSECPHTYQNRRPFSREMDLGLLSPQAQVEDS

[2] = molecular target: Receptor-type tyrosine-protein kinase FLT3 (Homo sapiens, UniProt P36888, D835V); experiment: Binding affinity to human partial length FLT3 ITD D835V mutant expressed in mammalian expression system by KdELECT Discover assay
MV4-11 = experiment: cells; details: Homo sapiens, MV4-11, 72 h
Description: Antiproliferative activity against human MV4-11 cells assessed as cell death measured after 72 hrs by resazurin dye based assay

MOLM-14 = experiment: Antiproliferative activity against human MOLM-14 cells harboring D835Y mutant assessed as cell death measured after 72 hrs by resazurin dye based assay; assay type: functional; details: MOLM-14, 72 h
[3] = tested on: Receptor-type tyrosine-protein kinase FLT3 (Homo sapiens), P36888 [UNDEFINED MUTATION]; experiment: Inhibition of FLT3 ITD (unknown origin) assessed as residual activity at 500 nM
BaF3 = experiment: Antiproliferative activity against mouse BaF3 cells assessed as cell death measured after 72 hrs by resazurin dye based assay; assay type: functional; details: BaF3, 72 h

Cc1n[nH]c2ccc3nc(-c4c[nH]nc4C(F)(F)F)c4c(c3c12)CCCC4
IC50 [1]: 25 nM
Kd [2]: 0.73 nM
IC50 (MV4-11): 70 nM
IC50 (MOLM-14): 36 nM
Activity [3]: < 2.5%
IC50 (BaF3): 153000 nM
